Experimental data reported in ChEMBL document CHEMBL1201862, “PubChem BioAssay data set” (2004).
“And” between values parts separate entries of the source, which are not always exact repeats. Identical values can stand only once.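 Tested at 5 concentrations; 48 h exposure; 96-well plates; endpoints linearly interpolated, else capped at highest concentration. GI50: concentration for 50% inhibition of growth.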 The source made the active and inactive calls. Rule as the data show it: active = GI50 up to about 1.1 µM and inactive = higher.

What was measured:
Experiment in all cases: NCI-60 cell line screen, 48 h
HCT-15 = tested on: HCT-15
PC-3 = tested on: PC-3
OVCAR-4 = tested on: OVCAR-4
RXF 393 = tested on: RXF 393
OVCAR-5 = tested on: OVCAR-5
NCI-H226 = tested on: NCI-H226
M14 = tested on: M14
HCT-116 = tested on: HCT-116
OVCAR-8 = tested on: OVCAR-8
TK-10 = tested on: TK-10
SK-MEL-2 = tested on: SK-MEL-2
DU-145 = tested on: DU-145
UACC-62 = tested on: UACC-62
SF-268 = tested on: SF-268
LOX IMVI = tested on: LOX IMVI
SK-OV-3 = tested on: SK-OV-3
OVCAR-3 = tested on: OVCAR-3
MDA-MB-435 = tested on: MDA-MB-435
A498 = tested on: A498
NCI-H23 = tested on: NCI-H23
A549 = tested on: A549
SW-620 = tested on: SW-620
NCI/ADR-RES = tested on: NCI/ADR-RES
SR = tested on: SR
HT-29 = tested on: HT-29
CAKI-1 = tested on: CAKI-1
SK-MEL-5 = tested on: SK-MEL-5
HCC 2998 = tested on: HCC 2998
HOP-92 = tested on: HOP-92
Malme-3M = tested on: Malme-3M
MCF7 = tested on: MCF7
UO-31 = tested on: UO-31
SNB-19 = tested on: SNB-19
T47D = tested on: T47D
SK-MEL-28 = tested on: SK-MEL-28
IGROV-1 = tested on: IGROV-1
CCRF-CEM = tested on: CCRF-CEM
BT-549 = tested on: BT-549
HOP-62 = tested on: HOP-62
ACHN = tested on: ACHN
RPMI-8226 = tested on: RPMI-8226
HL-60 = tested on: HL-60
KM12 = tested on: KM12
SN12C = tested on: SN12C
SF-295 = tested on: SF-295
MDA-MB-231 = tested on: MDA-MB-231
UACC-257 = tested on: UACC-257
NCI-H522 = tested on: NCI-H522
K562 = tested on: K562
SNB-75 = tested on: SNB-75
Hs-578T = tested on: Hs-578T
MOLT-4 = tested on: MOLT-4
COLO 205 = tested on: COLO 205
NCI-H460 = tested on: NCI-H460
SF-539 = tested on: SF-539
EKVX = tested on: EKVX
786-0 = tested on: 786-0
MDA-N = tested on: MDA-N

**Q.** With `C[C@]12CC[C@H]3[C@@H](CC=C4C[C@@H](O)CC[C@@]43C)[C@@H]1C/C(=C\c1ccc([N+](=O)[O-])cc1)[C@@H]2O` as the compound, how does the GI50 (HCT-15) read?
**A.** The GI50 was 10.9 µM.

**Q.** What about the GI50 (PC-3) of the same compound?
**A.** Its GI50 is 14.3 µM (inactive).

**Q.** What about the GI50 (OVCAR-4) of the same compound?
**A.** The GI50 was < 0.01 µM (active).

**Q.** And the GI50 (RXF 393)?
**A.** Its GI50 is 9.71 µM (inactive).

**Q.** And the GI50 (OVCAR-5)?
**A.** The GI50 was 25.2 µM (inactive).

**Q.** And the GI50 (NCI-H226)?
**A.** The GI50 was 16.8 µM (inactive).

**Q.** And the GI50 (M14)?
**A.** Its GI50 is 22.7 µM (inactive).

**Q.** And the GI50 (HCT-116)?
**A.** The GI50 was 3.92 µM (inactive).

**Q.** What about the GI50 (OVCAR-8) of the same compound?
**A.** The GI50 was 10.9 µM (inactive).

**Q.** And the GI50 (TK-10)?
**A.** Its GI50 is 19.4 µM (inactive).

**Q.** What about the GI50 (SK-MEL-2) of the same compound?
**A.** The GI50 was 19.8 µM (inactive).

**Q.** And the GI50 (DU-145)?
**A.** Its GI50 is 11 µM (inactive).

**Q.** And the GI50 (UACC-62)?
**A.** Its GI50 is 10.6 µM (inactive).

**Q.** And the GI50 (SF-268)?
**A.** Its GI50 is 26.1 µM (inactive).

**Q.** And the GI50 (LOX IMVI)?
**A.** Its GI50 is 18.8 µM (inactive).

**Q.** What about the GI50 (SK-OV-3) of the same compound?
**A.** The GI50 was 13.7 µM (inactive).

**Q.** And the GI50 (OVCAR-3)?
**A.** The GI50 was 16.3 µM (inactive).

**Q.** And the GI50 (MDA-MB-435)?
**A.** The GI50 was 22.5 µM (inactive).

**Q.** And the GI50 (A498)?
**A.** The GI50 was 15.1 µM (inactive).

**Q.** And the GI50 (NCI-H23)?
**A.** Its GI50 is 9.98 µM (inactive).

**Q.** What about the GI50 (A549) of the same compound?
**A.** The GI50 was 10.4 µM (inactive).

**Q.** What about the GI50 (SW-620) of the same compound?
**A.** The GI50 was 26.7 µM (inactive).

**Q.** What about the GI50 (NCI/ADR-RES) of the same compound?
**A.** Its GI50 is 12.5 µM (inactive).

**Q.** And the GI50 (SR)?
**A.** The GI50 was 8.41 µM (inactive).

**Q.** And the GI50 (HT-29)?
**A.** Its GI50 is 5.83 µM (inactive).

**Q.** What about the GI50 (CAKI-1) of the same compound?
**A.** Its GI50 is 13.8 µM (inactive).

**Q.** What about the GI50 (SK-MEL-5) of the same compound?
**A.** The GI50 was 6.81 µM (inactive).

**Q.** What about the GI50 (HCC 2998) of the same compound?
**A.** The GI50 was 11.7 µM (inactive).

**Q.** And the GI50 (HOP-92)?
**A.** The GI50 was 21.1 µM (inactive).

**Q.** What about the GI50 (Malme-3M) of the same compound?
**A.** Its GI50 is 16 µM (inactive).

**Q.** And the GI50 (MCF7)?
**A.** The GI50 was 6.71 µM (inactive).

**Q.** What about the GI50 (UO-31) of the same compound?
**A.** The GI50 was 8.93 µM (inactive).

**Q.** And the GI50 (SNB-19)?
**A.** Its GI50 is 16.9 µM (inactive).

**Q.** And the GI50 (T47D)?
**A.** The GI50 was 4.38 µM (inactive).

**Q.** What about the GI50 (SK-MEL-28) of the same compound?
**A.** Its GI50 is 19.3 µM (inactive).

**Q.** What about the GI50 (IGROV-1) of the same compound?
**A.** Its GI50 is 26 µM (inactive).

**Q.** And the GI50 (CCRF-CEM)?
**A.** The GI50 was 5.14 µM (inactive).

**Q.** And the GI50 (BT-549)?
**A.** The GI50 was 14.6 µM (inactive).

**Q.** What about the GI50 (HOP-62) of the same compound?
**A.** The GI50 was 11.7 µM (inactive).

**Q.** What about the GI50 (ACHN) of the same compound?
**A.** Its GI50 is 11.6 µM (inactive).

**Q.** And the GI50 (RPMI-8226)?
**A.** The GI50 was 7.48 µM (inactive).

**Q.** And the GI50 (HL-60)?
**A.** The GI50 was 2.65 µM (inactive).

**Q.** And the GI50 (KM12)?
**A.** The GI50 was 18.5 µM (inactive).

**Q.** What about the GI50 (SN12C) of the same compound?
**A.** Its GI50 is 10.6 µM (inactive).

**Q.** What about the GI50 (SF-295) of the same compound?
**A.** The GI50 was 16.8 µM (inactive).

**Q.** What about the GI50 (MDA-MB-231) of the same compound?
**A.** Its GI50 is 7.93 µM (inactive).

**Q.** And the GI50 (UACC-257)?
**A.** The GI50 was 16.3 µM (inactive).

**Q.** What about the GI50 (NCI-H522) of the same compound?
**A.** Its GI50 is 9.98 µM (inactive).

**Q.** What about the GI50 (K562) of the same compound?
**A.** The GI50 was 5.68 µM (inactive).

**Q.** What about the GI50 (SNB-75) of the same compound?
**A.** The GI50 was 17.4 µM (inactive).

**Q.** And the GI50 (Hs-578T)?
**A.** Its GI50 is 16.9 µM (inactive).

**Q.** What about the GI50 (MOLT-4) of the same compound?
**A.** The GI50 was 4.18 µM (inactive).

**Q.** And the GI50 (COLO 205)?
**A.** The GI50 was 15.1 µM (inactive).

**Q.** What about the GI50 (NCI-H460) of the same compound?
**A.** The GI50 was 16.1 µM (inactive).

**Q.** And the GI50 (SF-539)?
**A.** The GI50 was 17.1 µM (inactive).

**Q.** What about the GI50 (EKVX) of the same compound?
**A.** Its GI50 is 10.6 µM (inactive).

**Q.** And the GI50 (786-0)?
**A.** The GI50 was 10.9 µM (inactive).

**Q.** How did the GI50 (HCT-15) turn out when `C=CCN1C(=O)/C(=C/c2ccc(OC)cc2)N=C1SC1OC(COC(C)=O)C(OC(C)=O)C(OC(C)=O)C1OC(C)=O` (configuration not stated) was run?
**A.** Its GI50 is 36.4 µM and 43.7 µM.

**Q.** And the GI50 (RXF 393)?
**A.** Its GI50 is 27 µM (inactive) and 25.3 µM (inactive).

**Q.** What about the GI50 (NCI-H226) of the same compound?
**A.** Its GI50 is 21.6 µM (inactive) and 32.1 µM (inactive).

**Q.** What about the GI50 (M14) of the same compound?
**A.** The GI50 was 39.4 µM (inactive).

**Q.** And the GI50 (HCT-116)?
**A.** Its GI50 is 30.8 µM (inactive).

**Q.** What about the GI50 (DU-145) of the same compound?
**A.** Its GI50 is 23.4 µM (inactive) and 45.3 µM (inactive).

**Q.** What about the GI50 (SK-OV-3) of the same compound?
**A.** The GI50 was 18.1 µM (inactive) and 34.7 µM (inactive).

**Q.** And the GI50 (A498)?
**A.** Its GI50 is 31.9 µM (inactive) and 32.4 µM (inactive).

**Q.** What about the GI50 (NCI-H23) of the same compound?
**A.** Its GI50 is 33.5 µM (inactive) and 36.9 µM (inactive).

**Q.** What about the GI50 (A549) of the same compound?
**A.** The GI50 was 34.8 µM (inactive).

**Q.** And the GI50 (SW-620)?
**A.** Its GI50 is 60 µM (inactive) and 36.9 µM (inactive).

**Q.** And the GI50 (NCI/ADR-RES)?
**A.** The GI50 was 30.8 µM (inactive) and 48.8 µM (inactive).

**Q.** And the GI50 (SR)?
**A.** Its GI50 is 34.5 µM (inactive) and 25.9 µM (inactive).

**Q.** And the GI50 (HT-29)?
**A.** The GI50 was 8.45 µM (inactive).

**Q.** And the GI50 (SK-MEL-5)?
**A.** The GI50 was 19.5 µM (inactive) and 29 µM (inactive).

**Q.** What about the GI50 (HCC 2998) of the same compound?
**A.** Its GI50 is 39.7 µM (inactive) and 64.3 µM (inactive).

**Q.** And the GI50 (HOP-92)?
**A.** The GI50 was 12.7 µM (inactive) and 17.3 µM (inactive).

**Q.** And the GI50 (Malme-3M)?
**A.** The GI50 was 44.2 µM (inactive) and 57.5 µM (inactive).

**Q.** What about the GI50 (SNB-19) of the same compound?
**A.** The GI50 was 32 µM (inactive).

**Q.** And the GI50 (T47D)?
**A.** Its GI50 is 23.8 µM (inactive).

**Q.** What about the GI50 (BT-549) of the same compound?
**A.** The GI50 was 27.2 µM (inactive) and 19.8 µM (inactive).

**Q.** And the GI50 (RPMI-8226)?
**A.** Its GI50 is 32.8 µM (inactive) and 43.3 µM (inactive).

**Q.** What about the GI50 (SN12C) of the same compound?
**A.** Its GI50 is 29.6 µM (inactive).

**Q.** What about the GI50 (MDA-N) of the same compound?
**A.** The GI50 was 37.8 µM (inactive).

**Q.** What about the GI50 (UACC-257) of the same compound?
**A.** The GI50 was 29.4 µM (inactive) and 20.7 µM (inactive).

**Q.** What about the GI50 (K562) of the same compound?
**A.** The GI50 was 36.7 µM (inactive) and 24.5 µM (inactive).

**Q.** What about the GI50 (SNB-75) of the same compound?
**A.** The GI50 was 19.1 µM (inactive) and 35.5 µM (inactive).

**Q.** What about the GI50 (COLO 205) of the same compound?
**A.** The GI50 was 67.8 µM (inactive) and 41.3 µM (inactive).

**Q.** And the GI50 (EKVX)?
**A.** Its GI50 is 28.2 µM (inactive) and 21.4 µM (inactive).

**Q.** And the GI50 (786-0)?
**A.** The GI50 was 17.2 µM (inactive).
